Some test systems named below: KM12 colon; SNB-19 CNS; PC-3 prostate; HCT-116 colon; NCI-H23 lung; TK-10 renal; BT-549 breast; SK-MEL-5 melanoma; OVCAR-3 ovarian; LOX IMVI melanoma.
What all share (test): DTP human tumour cell line panel, 48 h

“And” between values parts separate entries of the source, which are not always exact repeats. Equal values may be shown once.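 1) Cells in 96-well plates. 2) Compound, 48 h, 5 concentrations. 3) Linear interpolation between surrounding doses. 4) Unreached endpoint = highest concentration. GI50 marks 50% less growth. TGI denotes the concentration required for complete inhibition of growth.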

As to `COc1cc(OC)c2c(c1Cl)O[C@]1(C2=O)C(OCc2ccccc2)=CC(=O)C[C@H]1C`, the GI50 (commonly the concentration that inhibits growth by half) was 0.596 µM with KM12 colon; 5.68 µM with SNB-19 CNS; 1.6 µM with PC-3 prostate; 0.46 µM with HCT-116 colon; 1.02 µM with NCI-H23 lung; 4.34 µM with TK-10 renal. The results for the GI50 with BT-549 breast, with SK-MEL-5 melanoma and with OVCAR-3 ovarian were 2.28 µM, 1.15 µM and 0.986 µM, respectively. For the same compound, the TGI (as a rule, the concentration giving total growth inhibition) was more than 100 µM with KM12 colon; 98.8 µM in the test with SNB-19 CNS; 63.3 µM in the test on PC-3 prostate; more than 100 µM in the test with HCT-116 colon; 39.5 µM in the test on NCI-H23 lung; 63.2 µM with TK-10 renal. Further, the TGI amounted to 21.1 µM in the test on BT-549 breast, 11.8 µM with SK-MEL-5 melanoma and 11.4 µM in the test with OVCAR-3 ovarian.

With `CCCCCC/C(CC(=O)CCC(=O)NCCc1ccccc1)=N\NC(=O)c1ccc2ccccc2c1O`, the TGI with KM12 colon was more than 100 µM; in the test on SNB-19 CNS it was more than 100 µM; with HCT-116 colon, more than 100 µM; in the test with NCI-H23 lung, more than 100 µM; in the test on LOX IMVI melanoma, 48.5 µM; in the test on TK-10 renal, more than 100 µM. The TGI in the test with SK-MEL-5 melanoma is 69.5 µM; with OVCAR-3 ovarian it was more than 100 µM.

In the case of `Cc1ccc(SSCCCCS(=O)O)cc1`, the TGI was 52.3 µM with KM12 colon; more than 100 µM in the test with SNB-19 CNS; more than 100 µM with HCT-116 colon; 55.4 µM in the test on NCI-H23 lung; 76.1 µM with LOX IMVI melanoma; 46.8 µM with TK-10 renal. Also, the TGI with SK-MEL-5 melanoma stood at 25.6 µM; with OVCAR-3 ovarian, 67.7 µM.

Turning to `C=C1CC(CC(=O)C(C)CC2CC(=C)C(=O)O2)OC1=O` (stereo unspecified), the TGI was 22.6 µM with KM12 colon; more than 100 µM with SNB-19 CNS; 24.6 µM in the test on HCT-116 colon; 35.8 µM in the test on NCI-H23 lung; 29.2 µM with LOX IMVI melanoma; 33.9 µM with TK-10 renal. Also, the values for the TGI in the test on SK-MEL-5 melanoma and with OVCAR-3 ovarian were more than 100 µM and 37 µM, respectively.

`CC(=O)Nc1ccccc1S(=O)c1ccccc1` (stereo unspecified): the total growth inhibition concentration (TGI) in the test on KM12 colon, in the test with SNB-19 CNS, in the test on HCT-116 colon, in the test on NCI-H23 lung, with LOX IMVI melanoma and in the test on TK-10 renal was more than 100 µM throughout. Besides, the TGI in the test on SK-MEL-5 melanoma and in the test on OVCAR-3 ovarian was more than 100 µM throughout.

With `O=S1Cc2ccccc2CSS1` (stereo unspecified), the TGI in the test with KM12 colon was 31.6 µM; in the test on SNB-19 CNS, more than 100 µM; in the test on HCT-116 colon, 28.3 µM; with NCI-H23 lung it was 28.1 µM; in the test with LOX IMVI melanoma, 17.3 µM; with TK-10 renal, 33.2 µM. In addition, the TGI in the test on SK-MEL-5 melanoma turned out to be 26.3 µM; in the test with OVCAR-3 ovarian, 31.1 µM.

Take `CN(C)c1ccc(/C=c2\sc3nnc(Cc4ccccc4)n3c2=O)cc1`: the GI50 was more than 100 µM in the test on KM12 colon; more than 100 µM in the test on SNB-19 CNS; more than 10 µM in the test on HCT-116 colon; more than 100 µM in the test with NCI-H23 lung; more than 100 µM with TK-10 renal; more than 100 µM with SK-MEL-5 melanoma. For the same compound, in the test on OVCAR-3 ovarian, the GI50 was more than 100 µM. Also, the TGI was more than 100 µM with KM12 colon; more than 100 µM in the test on SNB-19 CNS; > 10 µM and 35.4 µM in the test on HCT-116 colon; more than 100 µM in the test with NCI-H23 lung; more than 10 µM in the test with LOX IMVI melanoma; more than 100 µM in the test on TK-10 renal. Further, the TGI in the test with SK-MEL-5 melanoma and with OVCAR-3 ovarian was more than 100 µM each time.

Consider `Nc1nc(Cl)c2ncn(Cc3ccc(-c4ccc(CCl)cc4)cc3)c2n1`, for which the GI50 in the test on KM12 colon was 27.7 µM; in the test on SNB-19 CNS, 38.4 µM; with PC-3 prostate, 9.08 µM; with HCT-116 colon, 6.71 µM; in the test on NCI-H23 lung, 5.6 µM; with TK-10 renal, 6.44 µM. Besides, the GI50 in the test with BT-549 breast is 7.13 µM; in the test with SK-MEL-5 melanoma, 4.42 µM; with OVCAR-3 ovarian, 7.3 µM. Further, the TGI in the test on KM12 colon is more than 100 µM; in the test with SNB-19 CNS, more than 100 µM; in the test on PC-3 prostate, more than 100 µM; with HCT-116 colon it was 23.7 µM; with NCI-H23 lung, 19.9 µM; in the test with TK-10 renal it was 19.8 µM. The TGI with BT-549 breast is 37.8 µM; in the test on SK-MEL-5 melanoma, 18.9 µM; with OVCAR-3 ovarian, 32 µM.

As to `N#CC1([N+](=O)[O-])C=C1c1ccccc1` (stereo unspecified), the TGI in the test on KM12 colon, with SNB-19 CNS, in the test on HCT-116 colon, in the test on NCI-H23 lung, in the test on LOX IMVI melanoma and in the test on TK-10 renal was more than 100 µM throughout. For the same compound, the TGI in the test on SK-MEL-5 melanoma and in the test on OVCAR-3 ovarian was more than 100 µM throughout.

Regarding `O=[N+]([O-])c1ccc2nc(=S)[nH]n2c1`, the TGI with KM12 colon, in the test with SNB-19 CNS, with HCT-116 colon, in the test on NCI-H23 lung, in the test with LOX IMVI melanoma and in the test on TK-10 renal was more than 100 µM throughout. Also, the TGI in the test on BT-549 breast and in the test with SK-MEL-5 melanoma was more than 100 µM each time.

On to `CC(=O)Nc1ccc(OCC(O)CO)cc1` (stereo unspecified), for which the concentration for total growth inhibition (TGI) is more than 100 µM with KM12 colon; more than 100 µM in the test with SNB-19 CNS; more than 100 µM with HCT-116 colon; more than 100 µM in the test on NCI-H23 lung; 73.1 µM with LOX IMVI melanoma; more than 100 µM with TK-10 renal. Besides, the TGI with SK-MEL-5 melanoma and in the test with OVCAR-3 ovarian was more than 100 µM throughout.

Consider `CC1CC2(C)CC(=O)C1C1C(=O)N(CCN3CCOCC3)C(=O)C12` (stereo unspecified), for which the GI50 in the test with KM12 colon, in the test on SNB-19 CNS, with PC-3 prostate, in the test with HCT-116 colon, in the test on NCI-H23 lung and in the test with LOX IMVI melanoma was more than 100 µM each time. In addition, the GI50 in the test on TK-10 renal, with BT-549 breast and with SK-MEL-5 melanoma was more than 100 µM each time. The TGI with KM12 colon, in the test on SNB-19 CNS, in the test with PC-3 prostate, in the test on HCT-116 colon, with NCI-H23 lung and with LOX IMVI melanoma was more than 100 µM throughout. Moreover, the TGI in the test on TK-10 renal, with BT-549 breast and in the test on SK-MEL-5 melanoma was more than 100 µM each time.

On to `CC1CCC2[C@@H](C)COC3O[C@]4(C)CCC1C32OO4` (stereo partly specified), for which the TGI in the test with KM12 colon, in the test on SNB-19 CNS, in the test on HCT-116 colon, in the test on NCI-H23 lung, in the test with LOX IMVI melanoma and in the test with TK-10 renal was more than 100 µM each time. For the same compound, the TGI in the test with SK-MEL-5 melanoma and in the test on OVCAR-3 ovarian was more than 100 µM in each case.
